In US8507481B2, “Benzoxazine oxazolidinone compounds, preparation methods and uses thereof” (Shanghai Institute of Materia Medica, Chinese Academy of …, priority 2010, dated 2013):
≈ marks a conversion by molar mass, not a printed value. Where “and” joins values, the source holds several entries; their conditions need not be identical. Identical values can stand only once. Like-named read-outs stand apart in the source and are kept apart here.

Key:
[1] = tested on: methicillin-resistant Staphylococcus aureus (MRSA); assay: In vivo antibacterial activity in mice infected with MRSA; parameters: species or system Kunming mice; conditions: for ED50: Staphylococcus aureus
Excerpt: Experimental strains: the bacteria used for infecting animals was methicillin-resistant Staphylococcus aureus (MRSA), which was clinically isolated pathogenic bacteria collected in Nanjing area in 2009, and re-identified by the API method.
Experimental animals: Healthy Kunming mice of SPF grade and weighing 18-22 g were chosen, and male and female were 50% each, and they were supplied by animal breeding office of Pharmacology Laboratory, China Pharmaceutical University.
Test method of infection and treatment: The experimental animals were evenly grouped by sex and weight, each group had 10 mice, including 50% of male and female, respectively. Intraperitoneal injection of bacteria solution was performed among animals at 0.5 mL/animal. One hour after infection, the tested drug solution (Compound 7 of the present invention and the positive control drug LZ) of different concentrations were given to each animal by oral gavage or intravenous injection at 0.5 mL/20 g, respectively. For mice receiving oral gavage, another gavage was given 4 hours after the first dose, observation was performed after administration, and death was recorded. An infected control group was set up for the same group, and the number of the deaths within seven days after infection was recorded.
Experimental data processing: median effective dose ED50 and 95% confidence limits were calculated by Bliss for in vivo protective effect of each tested drug among mice infected with tested strain.

[2] = In vivo pharmacokinetic trial in rat (gavage and intravenous injection); parameters: species or system SD male rats
Description: The tested compound was Compound 7, using two administration routes (gavage and intravenous injection).
(§1) Gavage: four healthy SD male rats weighing 200-250 g were given a dose of 15 mg/kg, with an administered volume of 10 mL/kg. And the compound was prepared as 0.5% CMC—Na. The animals were fasted for 12 hours and had free access to water before administration, 0.3 mL of venous blood was sampled through retrobulbar venous plexus at 0.25, 0.5, 1, 0, 2.0, 3.0, 4.0, 5.0, 7.0, 9.0, 24, and 48 hours after administration and collected in heparinized test tubes, which is subjected to centrifugation at 3500 rpm for 10 min to separate the plasma, and stored at −20° C. for testing.
as §1, with “Intravenous injection: two” for “Gavage: four”, “using DMSO, Tween 80 and deionized water.” for “as 0.5% CMC—Na.”, “5 min, 15 min,” for “0.25,”, “1.0,” for “1, 0,”
Concentration of Compound 7 in plasma was determined using liquid chromatography-tandem mass spectrometry.

[3] = tested on: Staphylococcus aureus drug-resistant strain (6 strains); assay: MIC by agar dilution, Staphylococcus aureus drug-resistant strains; assay type: cell-based; parameters: unit not given here; conditions: 35° C., 16 hours
Description: (§2) Test method: minimal inhibitory concentration (MIC) of series of compounds of the present invention and the positive control drug linezo lid against the tested strains was determined using agar dilution method (Antimicrob. Agents and Chemother., 40, 1996. 720-726). The bacteria was inoculated on the surface of agar plates with different drug concentrations using a multi-point inoculation instrument (Denley A400). Inoculum of each point was about 10^6 CFU/mL, and inoculation was performed at 35° C. for 16 hours to get observation. The minimal concentration of a drug contained in the plate medium without bacteria growth was considered as the minimal inhibitory concentration (MIC value) of the drug against bacteria.
(§3) Tested strains: the tested strains were clinically isolated pathogenic bacteria collected in the Nanjing area, and re-identified by conventional methods before use. 31 pathogenic bacteria are selected, and strain serial numbers were as following: six enterococci; five Staphylococcus aureus sensitive strains; five Staphylococcus epidermidis sensitive strains; six Staphylococcus aureus drug-resistant strains; five Staphylococcus epidermidis drug-resistant strains; four pneumococcus drug-resistant strains.
(§4) At first, tested compounds were added into 2 mL of DMSO, which could facilitate full dissolution, and then sterile double distilled water was added to a desired concentration; 20 mL MH medium in heat-melted to liquid was added to each of plates with drug solution, so that the final drug concentrations in the plates were 64, 32, 16, 8, 4, 2, 1, 0.5, 0.25, 0.125, 0.0625 and 0.031 μg/mL.
(§5) The positive control group was LZ (linezolid, trade name Zyvox, which was approved by the FDA in 2000 to be first launched in the United States and is the first and only oxazolidinone antibacterial drug permitted to be used in clinical practice at present).

[4] = tested on: Staphylococcus aureus sensitive strain (5 strains); assay: MIC by agar dilution, Staphylococcus aureus sensitive strains; assay type: cell-based; conditions: 35° C., 16 hours
Description: as §2, §3, §4, §5

[5] = tested on: Staphylococcus epidermidis drug-resistant strain (5 strains); assay: MIC by agar dilution, Staphylococcus epidermidis drug-resistant strains; assay type: cell-based; conditions: 35° C., 16 hours
Description: as §2, §3, §4, §5

Enterococcus (6 strains) = assay: MIC by agar dilution, Enterococcus; assay type: cell-based; conditions: 35° C., 16 hours
Description: as §2, §3, §4, §5

[6] = tested on: Pneumococcus drug-resistant strain (4 strains); assay: MIC by agar dilution, pneumococcus drug-resistant strains; assay type: cell-based; parameters: unit not given here; conditions: 35° C., 16 hours
Description: as §2, §3, §4, §5

[7] = tested on: Staphylococcus epidermidis sensitive strain (5 strains); assay: MIC by agar dilution, Staphylococcus epidermidis sensitive strains; assay type: cell-based; parameters: unit not given here; conditions: 35° C., 16 hours
Description: as §2, §3, §4, §5

[8] = gavage 15 mg/kg, individual animals No. 1-4, 15 mg/kg
[9] = gavage 15 mg/kg, mean of 4 animals
[10] = intravenous injection 15 mg/kg, individual animals No. 5-6, 15 mg/kg
[11] = intravenous injection 15 mg/kg, mean of 2 animals
[12] = male, SD, plasma, iv, 15 mg/kg, intravenous injection 15 mg/kg, individual animals No. 5-6
[13] = male, SD, plasma, po, 15 mg/kg, gavage 15 mg/kg, individual animals No. 1-4
[14] = male, SD, plasma, po, 15 mg/kg, gavage 15 mg/kg, mean of 4 animals

Molecule: CC(=O)NC[C@@H]1OC(=O)N2c3ccc(-c4ccc(C#N)nc4)cc3OC[C@@H]12 [Compound 7, N-(((3S,3aS)-7-(6-cyanopyridin-3-yl)-1-oxo-1,3,3a,4-tetrahydrobenzo[b]oxazole-[3,4-d][1,4]oxazin-3-yl)methyl)acetamide]
- ED50 ([1]; MRSA): 5.53 mg/kg
- ED50 ([1]; MRSA, ip): 5.92 mg/kg
- in vivo activity compared with control drug LZ ([1]; mouse model infected with MRSA): significantly better than that of the control drug LZ
- metabolic properties ([2]; 15 mg/kg gavage and intravenous injection): good metabolic properties
- AUC0-t [2, 8]: 57191 ng·h/mL and 61593 ng·h/mL and 79448 ng·h/mL
- AUC0-∞ [2, 8]: 57255 ng·h/mL and 61983 ng·h/mL and 79622 ng·h/mL
- CLz [2, 8]: 3.73 mL/min/kg and 4.37 mL/min/kg and 4.03 mL/min/kg and 3.13 mL/min/kg
- Cmax [2, 8]: 3958 ng/mL and 4772 ng/mL and 6269 ng/mL
- MRT [2, 8]: 8.65 h and 8.79 h and 9.09 h
- Tmax [2, 8]: 2.0 h and 5.0 h
- Vz [2, 8]: 1.81 L/kg and 1.79 L/kg and 2.22 L/kg and 1.44 L/kg
- t1/2 [2, 8]: 4.74 h and 6.36 h and 5.31 h
- CLz [2, 9]: 3.82 mL/min/kg
- Vz [2, 9]: 1.82 L/kg
- Tmax ([2]; intravenous injection 15 mg/kg, individual animals No. 5-6): 2.0 h
- AUC0-t [2, 10]: 87218 ng·h/mL
- AUC0-∞ [2, 10]: 87475 ng·h/mL
- CLz [2, 10]: 3.28 mL/min/kg and 2.85 mL/min/kg
- MRT [2, 10]: 8.77 h
- Vz [2, 10]: 1.42 L/kg
- t1/2 [2, 10]: 5.72 h
- AUC0-∞ [2, 11]: 81844 ng·h/mL
- CLz [2, 11]: 3.07 mL/min/kg
- Tmax [2, 11]: 2.0 h
- t1/2 [2, 11]: 5.58 h
- AUC(0-inf) [2, 12]: 76200 ng·h/mL
- half-life [2, 12]: 5.44 h
- AUC0-t ([2]; male, SD, plasma, iv, 15 mg/kg, intravenous injection 15 mg/kg, individual animals No. 5-6, read-out: AUC0-t): 76100 ng·h/mL
- Cmax ([2]; male, SD, plasma, iv, 15 mg/kg, intravenous injection 15 mg/kg, individual animals No. 5-6, read-out: Cmax): 7510 ng/mL
- MRT ([2]; male, SD, plasma, iv, 15 mg/kg, intravenous injection 15 mg/kg, individual animals No. 5-6, read-out: MRT): 7.98 h
- Vd ([2]; male, SD, plasma, iv, 15 mg/kg, intravenous injection 15 mg/kg, individual animals No. 5-6, read-out: Vz): 1.55 L/kg
- AUC0-t ([2]; male, SD, plasma, iv, 15 mg/kg, intravenous injection 15 mg/kg, mean of 2 animals, read-out: AUC0-t): 81600 ng·h/mL
- Cmax ([2]; male, SD, plasma, iv, 15 mg/kg, intravenous injection 15 mg/kg, mean of 2 animals, read-out: Cmax): 7510 ng/mL
- MRT ([2]; male, SD, plasma, iv, 15 mg/kg, intravenous injection 15 mg/kg, mean of 2 animals, read-out: MRT): 8.37 h
- Vd ([2]; male, SD, plasma, iv, 15 mg/kg, intravenous injection 15 mg/kg, mean of 2 animals, read-out: Vz): 1.48 L/kg
- AUC(0-inf) [2, 13]: 67100 ng·h/mL
- half-life [2, 13]: 5.6 h
- AUC0-t ([2]; male, SD, plasma, po, 15 mg/kg, gavage 15 mg/kg, individual animals No. 1-4, read-out: AUC0-t): 66900 ng·h/mL
- Cmax ([2]; male, SD, plasma, po, 15 mg/kg, gavage 15 mg/kg, individual animals No. 1-4, read-out: Cmax): 5450 ng/mL
- MRT ([2]; male, SD, plasma, po, 15 mg/kg, gavage 15 mg/kg, individual animals No. 1-4, read-out: MRT): 7.96 h
- AUC(0-inf) [2, 14]: 66500 ng·h/mL
- half-life [2, 14]: 5.5 h
- AUC0-t ([2]; male, SD, plasma, po, 15 mg/kg, gavage 15 mg/kg, mean of 4 animals, read-out: AUC0-t): 66300 ng·h/mL
- Cmax ([2]; male, SD, plasma, po, 15 mg/kg, gavage 15 mg/kg, mean of 4 animals, read-out: Cmax): 5110 ng/mL
- MRT ([2]; male, SD, plasma, po, 15 mg/kg, gavage 15 mg/kg, mean of 4 animals, read-out: MRT): 8.62 h
- Tmax ([2]; male, SD, plasma, po, 15 mg/kg, gavage 15 mg/kg, mean of 4 animals, read-out: Tmax): 4 h
- bioavailability ([2]; male, SD, plasma, po, gavage 15 mg/kg, calculated as AUC0-t, read-out: F (absolute bioavailability)): 81.2%

Molecule: N#Cc1ccc(-c2ccc3c(c2)OC[C@H]2[C@@H](Cn4ccnn4)OC(=O)N32)cn1 [Compound 49, (3R,3aS)-3-((1H-1,2,3-triazol-1-yl)methyl)-7-(6-cyanopyridin-3-yl)-3a,4-dihydrobenzo[b]oxazole[3,4-d][1,4]oxazine-1(3H)-one]
- MIC, Staphylococcus aureus drug-resistant strain (6 strains) [3]: 0.25
- MIC, Staphylococcs aureus sensitive strain (5 strains) [4]: 500 µM (≈ 187 µg/mL)
- MIC, Staphylococcus epidermidis drug-resistant strain (5 strains) [5]: 250 µM (≈ 93.6 µg/mL)
- MIC, Enterococcus (6 strains) (Enterococcus (6 strains)): 500 µM (≈ 187 µg/mL)
- MIC, Pneumococcus drug-resistant strain (4 strains) [6]: 0.5
- MIC, Staphylococcus epidremidis sensitive strain (5 strains) [7]: 0.25

Molecule: Cn1nnnc1-c1ccc(-c2ccc3c(c2)OC[C@H]2[C@@H](Cn4ccnn4)OC(=O)N32)cn1 [Compound 51, (3R,3aS)-3-((1H-1,2,3-triazol-1-yl)methyl)-7-(6-(1-methyl-1H-tetrazol-5-yl)pyridin-3-yl)-3a,4-dihydrobenzo[b]oxazole[3,4-d][1,4]oxazine-1(3H)-one]
- MIC, Staphylococcus aureus drug-resistant strain (6 strains) [3]: 0.5
- MIC, Staphylococcs aureus sensitive strain (5 strains) [4]: 250 µM (≈ 108 µg/mL)
- MIC, Staphylococcus epidermidis drug-resistant strain (5 strains) [5]: 500 µM (≈ 216 µg/mL)
- MIC, Enterococcus (6 strains) (Enterococcus (6 strains)): 500 µM (≈ 216 µg/mL)
- MIC, Pneumococcus drug-resistant strain (4 strains) [6]: 0.5
- MIC, Staphylococcus epidremidis sensitive strain (5 strains) [7]: 0.5

Molecule: CC(=O)NC[C@H]1CN(c2ccc(N3CCOCC3)c(F)c2)C(=O)O1 [LZ, linezolid, reference compound]
- ED50 ([1]; ip, mice infected i.p. with MRSA, p.o (gavage 1 h after infection and again 4 h after first dose), deaths within seven days, read-out: ED50): 8.5 mg/kg
- ED50 ([1]; mice infected i.p. with MRSA, iv 1 h after infection, deaths within seven days, read-out: ED50): 8.51 mg/kg

Molecule: N(((3S,3aS)-7-(6-(4-methyl piperazin-1-yl)pyridin-3-yl)-1-oxo-1,3,3a,4-tetrahydrobenzo[b]oxazole-[3,4-d][1,4]oxazin-3-yl)methyl)acetamide [Compound 62]
- MIC, Staphylococcus aureus drug-resistant strain (6 strains) [3]: 0.5
- MIC, Staphylococcs aureus sensitive strain (5 strains) [4]: 500 µM
- MIC, Staphylococcus epidermidis drug-resistant strain (5 strains) [5]: 500 µM
- MIC, Enterococcus (6 strains) (Enterococcus (6 strains)): 500 µM
- MIC, Pneumococcus drug-resistant strain (4 strains) [6]: 0.5
- MIC, Staphylococcus epidremidis sensitive strain (5 strains) [7]: 0.5
